Data taken from PubChem BioAssay (NCI).
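Following 48 hours of exposure in 96-well plates, responses at five concentrations were used to interpolate endpoints linearly. TGI: total growth inhibition.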

What was measured:
Assay in all cases: growth of human tumour cells (NCI), 48 h
COLO 205 colon = tested on: COLO 205 colon
HCT-15 colon = tested on: HCT-15 colon
HL-60(TB) leukemia = tested on: HL-60(TB) leukemia
HT29 colon = tested on: HT29 colon
K-562 leukemia = tested on: K-562 leukemia
KM12 colon = tested on: KM12 colon
MDA-MB-435 = tested on: MDA-MB-435
MDA-N = tested on: MDA-N
NCI-H23 lung = tested on: NCI-H23 lung
NCI-H522 lung = tested on: NCI-H522 lung
OVCAR-3 ovarian = tested on: OVCAR-3 ovarian
OVCAR-5 ovarian = tested on: OVCAR-5 ovarian
OVCAR-8 ovarian = tested on: OVCAR-8 ovarian
SF-268 CNS = tested on: SF-268 CNS
SK-OV-3 ovarian = tested on: SK-OV-3 ovarian
SNB-19 CNS = tested on: SNB-19 CNS
SR leukemia = tested on: SR leukemia
T-47D breast = tested on: T-47D breast
UACC-257 melanoma = tested on: UACC-257 melanoma
UACC-62 melanoma = tested on: UACC-62 melanoma

Measured: TGI

COc1cccc(N2C(=O)CSC2c2c[nH]c3ccccc23)c1 (stereo not given)
> 100 µM: all assays above
